Source: publication PMC12406203 (Journal of Medicinal Chemistry, 2025)

Experiments:
Assay in all cases: KINOMEscan
Assay type in all cases: binding
[1] = biological target: T1, TIE2 (Homo sapiens, UniProt Q02763)
T1 construct: purchased Eurofins DiscoverX, LLC; host or cells: E. coli BL21-derived host (T7 phage) or HEK-293

[2] = biological target: T2, FLT3 (Homo sapiens, UniProt P36888)
T2 construct: purchased Eurofins DiscoverX, LLC; host or cells: E. coli (T7 phage) or HEK-293
T2 sequence (P36888 27-993): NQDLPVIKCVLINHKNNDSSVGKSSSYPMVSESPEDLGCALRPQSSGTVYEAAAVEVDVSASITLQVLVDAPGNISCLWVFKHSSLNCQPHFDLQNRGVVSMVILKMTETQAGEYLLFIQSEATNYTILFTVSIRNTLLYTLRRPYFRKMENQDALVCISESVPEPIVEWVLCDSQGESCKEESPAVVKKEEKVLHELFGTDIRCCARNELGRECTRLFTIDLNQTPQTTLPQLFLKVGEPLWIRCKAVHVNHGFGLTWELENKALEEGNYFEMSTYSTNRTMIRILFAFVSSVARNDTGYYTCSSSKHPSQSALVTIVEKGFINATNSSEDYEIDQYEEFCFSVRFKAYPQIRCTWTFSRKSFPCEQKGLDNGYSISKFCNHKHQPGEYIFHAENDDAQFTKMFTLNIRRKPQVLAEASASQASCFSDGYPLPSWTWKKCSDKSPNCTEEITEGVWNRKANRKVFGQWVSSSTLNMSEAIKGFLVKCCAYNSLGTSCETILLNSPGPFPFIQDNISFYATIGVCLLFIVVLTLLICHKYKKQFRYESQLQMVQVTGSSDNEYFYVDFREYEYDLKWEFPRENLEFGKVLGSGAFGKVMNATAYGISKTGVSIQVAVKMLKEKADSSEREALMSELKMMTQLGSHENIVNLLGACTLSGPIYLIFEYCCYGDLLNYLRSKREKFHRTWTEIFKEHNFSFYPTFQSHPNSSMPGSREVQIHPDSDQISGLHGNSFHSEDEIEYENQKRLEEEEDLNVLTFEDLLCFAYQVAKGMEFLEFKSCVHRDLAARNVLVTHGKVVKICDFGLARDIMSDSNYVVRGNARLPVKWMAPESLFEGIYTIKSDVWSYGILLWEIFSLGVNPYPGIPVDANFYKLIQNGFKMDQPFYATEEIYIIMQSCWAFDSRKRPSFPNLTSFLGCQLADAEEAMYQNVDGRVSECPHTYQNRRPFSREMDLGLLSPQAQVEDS

[3] = biological target: T3, RAF1 (Homo sapiens, UniProt P04049)
T3 construct: purchased Eurofins DiscoverX, LLC; host or cells: E. coli BL21-derived host (T7 phage) or HEK-293

[4] = biological target: T4, ZAP70 (Homo sapiens, UniProt P43403)
T4 construct: purchased Eurofins DiscoverX, LLC; host or cells: E. coli BL21-derived host (T7 phage) or HEK-293
T4 sequence (P43403 1-619): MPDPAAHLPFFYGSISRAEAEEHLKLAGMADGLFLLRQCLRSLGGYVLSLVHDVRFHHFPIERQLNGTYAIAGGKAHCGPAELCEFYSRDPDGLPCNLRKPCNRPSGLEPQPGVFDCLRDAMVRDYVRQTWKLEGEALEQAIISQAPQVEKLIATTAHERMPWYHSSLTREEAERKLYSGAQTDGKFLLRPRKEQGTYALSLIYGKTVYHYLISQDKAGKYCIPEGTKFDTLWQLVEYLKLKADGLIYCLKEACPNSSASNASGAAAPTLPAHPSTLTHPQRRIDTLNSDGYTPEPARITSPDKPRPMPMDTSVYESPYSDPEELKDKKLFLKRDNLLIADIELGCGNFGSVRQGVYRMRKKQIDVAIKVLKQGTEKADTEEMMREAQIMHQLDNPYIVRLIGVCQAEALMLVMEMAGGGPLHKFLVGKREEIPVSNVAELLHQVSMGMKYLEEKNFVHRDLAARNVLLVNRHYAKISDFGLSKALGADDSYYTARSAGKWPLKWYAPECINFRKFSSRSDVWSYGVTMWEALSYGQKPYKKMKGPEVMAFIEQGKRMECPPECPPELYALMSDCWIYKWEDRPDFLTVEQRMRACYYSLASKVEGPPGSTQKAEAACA

[5] = biological target: T5, SRPK3 (Homo sapiens, UniProt Q9UPE1)
T5 construct: purchased Eurofins DiscoverX, LLC; host or cells: E. coli BL21-derived host (T7 phage) or HEK-293

[6] = biological target: T6, ADCK3 (Homo sapiens, UniProt Q8NI60)
T6 construct: purchased Eurofins DiscoverX, LLC; host or cells: E. coli BL21-derived (T7 phage) or HEK-293

[7] = biological target: T7, CSF1R (Homo sapiens, UniProt P07333)
T7 construct: purchased Eurofins DiscoverX, LLC; host or cells: E. coli (T7 phage) or HEK-293

[8] = biological target: T8, PAK2 (Homo sapiens, UniProt Q13177)
T8 construct: purchased Eurofins DiscoverX, LLC; host or cells: E. coli (BL21-derived, T7 phage) or HEK-293

[9] = biological target: T9, BTK (Homo sapiens, UniProt Q06187)
T9 construct: purchased Eurofins DiscoverX, LLC; host or cells: E. coli BL21-derived (T7 phage) or HEK-293

[10] = biological target: T10, PLK3 (Homo sapiens, UniProt Q9H4B4)
T10 construct: purchased Eurofins DiscoverX, LLC; host or cells: E. coli BL21-derived host (T7 phage) or HEK-293
T10 sequence (Q9H4B4 whole entry): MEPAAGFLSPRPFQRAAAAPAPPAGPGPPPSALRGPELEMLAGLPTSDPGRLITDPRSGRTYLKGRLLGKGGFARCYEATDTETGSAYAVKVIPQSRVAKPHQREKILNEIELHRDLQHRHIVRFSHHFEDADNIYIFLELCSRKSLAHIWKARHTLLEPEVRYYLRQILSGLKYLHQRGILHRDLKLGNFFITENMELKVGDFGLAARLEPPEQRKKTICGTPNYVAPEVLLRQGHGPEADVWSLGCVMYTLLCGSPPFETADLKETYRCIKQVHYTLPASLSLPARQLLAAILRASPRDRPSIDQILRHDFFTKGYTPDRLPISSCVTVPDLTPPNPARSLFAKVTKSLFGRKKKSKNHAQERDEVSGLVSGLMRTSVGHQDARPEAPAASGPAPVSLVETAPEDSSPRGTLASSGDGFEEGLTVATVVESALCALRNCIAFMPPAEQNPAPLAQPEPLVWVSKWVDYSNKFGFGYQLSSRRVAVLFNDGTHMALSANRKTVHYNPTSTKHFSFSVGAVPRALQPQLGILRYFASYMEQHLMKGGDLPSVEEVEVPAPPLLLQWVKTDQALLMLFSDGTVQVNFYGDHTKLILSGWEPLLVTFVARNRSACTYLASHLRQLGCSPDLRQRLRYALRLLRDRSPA

T8 sequence (Q13177 whole entry): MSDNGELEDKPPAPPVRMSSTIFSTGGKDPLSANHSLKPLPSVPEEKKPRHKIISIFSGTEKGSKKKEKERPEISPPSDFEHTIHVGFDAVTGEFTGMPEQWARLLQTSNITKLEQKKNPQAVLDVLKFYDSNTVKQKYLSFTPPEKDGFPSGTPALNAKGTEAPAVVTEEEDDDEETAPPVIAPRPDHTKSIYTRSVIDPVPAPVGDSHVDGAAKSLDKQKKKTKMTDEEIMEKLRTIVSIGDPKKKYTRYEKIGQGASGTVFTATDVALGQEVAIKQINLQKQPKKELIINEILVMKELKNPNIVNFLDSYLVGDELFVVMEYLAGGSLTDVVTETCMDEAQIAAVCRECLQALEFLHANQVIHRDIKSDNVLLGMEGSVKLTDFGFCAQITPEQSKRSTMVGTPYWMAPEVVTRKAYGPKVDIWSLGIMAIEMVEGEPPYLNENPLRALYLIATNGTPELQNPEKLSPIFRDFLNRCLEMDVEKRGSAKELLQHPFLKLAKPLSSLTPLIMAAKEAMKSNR
T5 sequence (Q9UPE1 whole entry): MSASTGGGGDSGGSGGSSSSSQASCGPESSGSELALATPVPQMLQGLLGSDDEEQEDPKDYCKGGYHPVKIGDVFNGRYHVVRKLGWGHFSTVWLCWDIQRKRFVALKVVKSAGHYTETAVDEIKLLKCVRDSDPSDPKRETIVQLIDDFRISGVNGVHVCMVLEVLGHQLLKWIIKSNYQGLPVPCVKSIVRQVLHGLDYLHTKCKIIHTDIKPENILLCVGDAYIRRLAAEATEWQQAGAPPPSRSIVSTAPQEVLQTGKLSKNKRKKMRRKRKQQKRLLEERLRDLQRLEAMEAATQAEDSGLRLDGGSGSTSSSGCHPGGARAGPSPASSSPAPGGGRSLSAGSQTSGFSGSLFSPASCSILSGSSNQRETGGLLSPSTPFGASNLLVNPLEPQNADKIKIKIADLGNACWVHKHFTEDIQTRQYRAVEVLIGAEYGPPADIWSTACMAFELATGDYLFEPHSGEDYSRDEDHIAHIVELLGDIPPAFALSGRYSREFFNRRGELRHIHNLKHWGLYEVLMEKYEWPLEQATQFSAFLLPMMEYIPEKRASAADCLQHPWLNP
T7 sequence (P07333 20-972): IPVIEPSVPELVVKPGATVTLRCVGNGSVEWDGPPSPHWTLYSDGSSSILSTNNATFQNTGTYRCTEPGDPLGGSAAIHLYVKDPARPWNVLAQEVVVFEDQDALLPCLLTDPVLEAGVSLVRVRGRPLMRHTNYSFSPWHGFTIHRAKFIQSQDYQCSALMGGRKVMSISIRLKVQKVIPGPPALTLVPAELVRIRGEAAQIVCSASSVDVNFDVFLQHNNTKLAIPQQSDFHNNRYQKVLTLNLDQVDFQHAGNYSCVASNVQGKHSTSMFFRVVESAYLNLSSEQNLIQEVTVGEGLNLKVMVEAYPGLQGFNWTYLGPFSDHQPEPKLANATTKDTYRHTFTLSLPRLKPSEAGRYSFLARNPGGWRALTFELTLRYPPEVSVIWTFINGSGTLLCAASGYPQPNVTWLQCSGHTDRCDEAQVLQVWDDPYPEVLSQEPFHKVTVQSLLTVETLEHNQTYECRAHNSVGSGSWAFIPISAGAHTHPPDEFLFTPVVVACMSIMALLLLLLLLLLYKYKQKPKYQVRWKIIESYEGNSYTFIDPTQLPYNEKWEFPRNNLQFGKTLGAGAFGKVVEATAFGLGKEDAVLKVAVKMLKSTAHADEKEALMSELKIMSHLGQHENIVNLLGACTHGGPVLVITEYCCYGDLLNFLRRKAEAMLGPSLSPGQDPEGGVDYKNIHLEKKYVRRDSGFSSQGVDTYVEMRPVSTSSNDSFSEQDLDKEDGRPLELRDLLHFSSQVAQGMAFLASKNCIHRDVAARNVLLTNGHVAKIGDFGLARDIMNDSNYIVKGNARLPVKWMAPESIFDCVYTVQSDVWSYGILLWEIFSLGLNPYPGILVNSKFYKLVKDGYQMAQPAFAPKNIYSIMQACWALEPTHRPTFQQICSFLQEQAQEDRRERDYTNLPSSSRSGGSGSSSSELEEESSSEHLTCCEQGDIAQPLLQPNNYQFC
T9 sequence (Q06187 whole entry): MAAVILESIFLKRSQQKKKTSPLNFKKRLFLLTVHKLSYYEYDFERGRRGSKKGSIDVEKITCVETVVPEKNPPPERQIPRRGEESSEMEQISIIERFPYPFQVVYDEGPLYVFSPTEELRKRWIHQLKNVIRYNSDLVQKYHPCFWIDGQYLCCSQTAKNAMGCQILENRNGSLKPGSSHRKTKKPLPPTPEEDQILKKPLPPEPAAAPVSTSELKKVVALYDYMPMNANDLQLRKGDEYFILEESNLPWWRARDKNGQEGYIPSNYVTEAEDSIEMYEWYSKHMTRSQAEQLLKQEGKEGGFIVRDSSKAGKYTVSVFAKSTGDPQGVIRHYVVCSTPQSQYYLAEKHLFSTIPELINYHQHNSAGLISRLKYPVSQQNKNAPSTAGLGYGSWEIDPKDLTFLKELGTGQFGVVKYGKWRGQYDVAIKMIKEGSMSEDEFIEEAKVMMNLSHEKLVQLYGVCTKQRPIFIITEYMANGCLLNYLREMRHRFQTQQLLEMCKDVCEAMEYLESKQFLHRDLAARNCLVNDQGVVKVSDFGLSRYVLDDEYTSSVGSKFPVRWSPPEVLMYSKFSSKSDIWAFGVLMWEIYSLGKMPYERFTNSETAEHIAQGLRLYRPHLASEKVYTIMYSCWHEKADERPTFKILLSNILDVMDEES
T6 sequence (Q8NI60 163-647): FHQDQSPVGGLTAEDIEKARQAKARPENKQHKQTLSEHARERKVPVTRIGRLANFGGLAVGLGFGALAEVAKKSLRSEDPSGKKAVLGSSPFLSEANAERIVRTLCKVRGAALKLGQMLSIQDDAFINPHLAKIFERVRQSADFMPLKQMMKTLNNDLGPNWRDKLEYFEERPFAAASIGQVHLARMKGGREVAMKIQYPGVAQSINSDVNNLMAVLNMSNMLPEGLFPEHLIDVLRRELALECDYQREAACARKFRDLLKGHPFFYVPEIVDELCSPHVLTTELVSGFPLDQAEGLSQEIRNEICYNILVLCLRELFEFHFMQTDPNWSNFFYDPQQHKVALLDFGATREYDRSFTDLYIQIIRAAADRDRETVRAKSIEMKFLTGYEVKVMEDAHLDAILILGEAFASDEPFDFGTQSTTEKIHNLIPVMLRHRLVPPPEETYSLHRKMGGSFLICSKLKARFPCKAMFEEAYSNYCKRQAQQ
T3 sequence (P04049 whole entry): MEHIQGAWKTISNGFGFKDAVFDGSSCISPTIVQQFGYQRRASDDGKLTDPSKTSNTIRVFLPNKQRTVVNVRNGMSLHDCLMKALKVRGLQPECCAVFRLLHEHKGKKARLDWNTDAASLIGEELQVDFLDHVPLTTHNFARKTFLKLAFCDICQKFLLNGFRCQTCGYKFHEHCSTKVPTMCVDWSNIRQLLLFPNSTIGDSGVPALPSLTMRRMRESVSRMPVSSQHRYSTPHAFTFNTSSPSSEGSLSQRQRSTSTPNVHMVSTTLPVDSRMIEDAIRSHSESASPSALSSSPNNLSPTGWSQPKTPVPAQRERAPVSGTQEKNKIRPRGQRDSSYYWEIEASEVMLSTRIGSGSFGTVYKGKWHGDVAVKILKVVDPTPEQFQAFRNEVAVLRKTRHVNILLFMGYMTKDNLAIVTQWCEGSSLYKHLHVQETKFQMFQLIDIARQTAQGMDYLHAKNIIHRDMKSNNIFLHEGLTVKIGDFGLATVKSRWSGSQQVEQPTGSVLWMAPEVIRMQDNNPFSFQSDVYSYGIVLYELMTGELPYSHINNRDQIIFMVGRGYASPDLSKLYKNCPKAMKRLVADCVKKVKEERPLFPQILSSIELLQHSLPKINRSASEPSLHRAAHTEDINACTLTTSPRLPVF

SMILES | RA @ 1000nM [1] [%] | RA @ 10000nM [1] [%] | RA @ 1000nM [2] [%] | RA @ 10000nM [2] [%] | RA @ 1000nM [3] [%] | RA @ 10000nM [3] [%] | RA @ 1000nM [4] [%] | RA @ 10000nM [4] [%] | RA @ 1000nM [5] [%] | RA @ 10000nM [5] [%] | RA @ 1000nM [6] [%] | RA @ 10000nM [6] [%] | RA @ 1000nM [7] [%] | RA @ 10000nM [7] [%] | RA @ 1000nM [8] [%] | RA @ 10000nM [8] [%] | RA @ 1000nM [9] [%] | RA @ 10000nM [9] [%] | RA @ 1000nM [10] [%] | RA @ 10000nM [10] [%]
CC(C)Cn1ncc2cc(Cc3ccc(F)cc3F)c(C(=O)NCCN(C)C)cc21 [Compound 94, 5-(2,4-Difluorobenzyl)-N-(2-(dimethylamino)ethyl)-1-isobutyl-1H-indazole-6-carboxamide] | 100 | 100 | 100 | 90 | 100 | 100 | 100 | 79 | 77 | 100 | 100 | 100 | 100 | 86 | 100 | 97 | 100 | 100 | 100 | 97
CN(C)CCNC(=O)c1cc2c(cnn2CC2CCCCC2)cc1Cc1ccc(F)cc1F [Compound 95, 1-(Cyclohexylmethyl)-5-(2,4-difluorobenzyl)-N-(2-(dimethylamino)ethyl)-1H-indazole-6-carboxamide] | 90 | 100 | 100 | 100 | 100 | 100 | 100 | 100 | 92 | 99 | 100 | 81 | 100 | 79 | 100 | 95 | 100 | 100 | 88 | 100
